# Measurements: ChEMBL document CHEMBL3868595, “Plazomicin is effective in a non-human primate pneumonic plague model” (Bioorg Med Chem, 2016)
# Assays:
# [1] = Volume of distribution at steady state in African green monkey blood at 25 mg/kg administered as iv infusion twice daily for 7 consecutive days measured on day 1 by LC-MS/MS analysis; format: ADME, organism-based; conditions: chlorocebus aethiops, read-out: Vdss
# African green monkey [2] = assay: Toxicity in African green monkey 7337 model infected with Yersinia pestis Colorado 92 assessed as serum lactate dehydrogenase level at 25 mg/kg, iv administered within 6 hrs post onset of sustained fever as 30 mins infusion for 10 days (reference value: 310 IU/L); format: organism-based; conditions: chlorocebus sabaeus, in vivo
# African green monkey [3] = assay: Toxicity in African green monkey B5994 model infected with Yersinia pestis Colorado 92 assessed as blood urea nitrogen level at 25 mg/kg, iv administered within 6 hrs post onset of sustained fever as 30 mins infusion for 10 days (reference value: 15 mg/dl); format: organism-based; conditions: chlorocebus sabaeus, in vivo
# Yersinia pestis [4] = assay: (§1) Antibacterial activity against Yersinia pestis Colorado 92 infected in African green monkey B6415 model assessed as bacterial burden in spleen at 25 mg/kg, iv administered within 6 hrs post onset of sustained fever as 30 mins infusion for 5 days (reference value: 1.6 10^9CFU/g); format: functional, CO92
# Yersinia pestis [5] = assay: Antibacterial activity against Yersinia pestis Colorado 92 infected in African green monkey B6127 model assessed as bacterial burden in lung at 25 mg/kg, iv administered within 6 hrs post onset of sustained fever as 30 mins infusion for 10 days (reference value: 7.7 10^8CFU/g); format: functional, organism-based; conditions: CO92
# Yersinia pestis [6] = assay: Antibacterial activity against Yersinia pestis Colorado 92 infected in African green monkey 8047 model assessed as bacterial burden in brain at 6.25 mg/kg, iv administered within 6 hrs post onset of sustained fever as 30 mins infusion for 10 days (reference value: 1.9 10^6CFU/g); format: functional, CO92
# Yersinia pestis [7] = assay: (§2) Antibacterial activity against Yersinia pestis Colorado 92 infected in African green monkey B6960 model assessed as bacterial burden in kidney at 6.25 mg/kg, iv administered within 6 hrs post onset of sustained fever as 30 mins infusion for 5 days (reference value: 7.1 10^7CFU/g); format: functional, CO92
# [8] = Toxicity in African green monkey 7643 model infected with Yersinia pestis Colorado 92 assessed as total white blood cell count at 25 mg/kg, iv administered within 6 hrs post onset of sustained fever as 30 mins infusion for 10 days (reference value: 6.1 10^3/microL); format: organism-based; conditions: chlorocebus aethiops, in vivo
# Yersinia pestis [9] = assay: Antibacterial activity against Yersinia pestis Colorado 92 infected in African green monkey B6861 model assessed as bacterial burden in kidney at 6.25 mg/kg, iv administered within 6 hrs post onset of sustained fever as 30 mins infusion for 5 days (reference value: 7.1 10^7CFU/g); format: functional, CO92
# Yersinia pestis [10] = assay: Antibacterial activity against Yersinia pestis Colorado 92 infected in African green monkey B6889 model assessed as bacterial burden in brain at 6.25 mg/kg, iv administered within 6 hrs post onset of sustained fever as 30 mins infusion for 5 days (reference value: 1.9 10^6CFU/g); format: functional, CO92
# Yersinia pestis [11] = assay: Antibacterial activity against Yersinia pestis Colorado 92 infected in African green monkey 8047 model assessed as bacterial burden in spleen at 6.25 mg/kg, iv administered within 6 hrs post onset of sustained fever as 30 mins infusion for 10 days (reference value: 1.6 10^9CFU/g); format: functional, CO92
# Yersinia pestis [12] = assay: Antibacterial activity against Yersinia pestis Colorado 92 infected in African green monkey B6783 model assessed as bacterial burden in kidney at 12.5 mg/kg, iv administered within 6 hrs post onset of sustained fever as 30 mins infusion for 5 days (reference value: 7.1 10^7CFU/g); format: functional, CO92
# African green monkey [13] = assay: Toxicity in African green monkey B6428 model infected with Yersinia pestis Colorado 92 assessed as serum creatinine level at 25 mg/kg, iv administered within 6 hrs post onset of sustained fever as 30 mins infusion for 10 days (reference value: 0.8 mg/dl); format: organism-based; conditions: chlorocebus sabaeus, in vivo
# Yersinia pestis [14] = assay: as §1, with “B6873” for “B6415”, “tracheobronchial lymph nodes” for “spleen”, “12.5” for “25”, “7.7” for “1.6”; format: functional, organism-based; conditions: CO92, Lymph node
# Yersinia pestis [15] = assay: (§3) Antibacterial activity against Yersinia pestis Colorado 92 infected in African green monkey B6988 model assessed as bacterial burden in lung at 6.25 mg/kg, iv administered within 6 hrs post onset of sustained fever as 30 mins infusion for 5 days (reference value: 7.7 10^8CFU/g); format: functional, CO92
# Yersinia pestis [16] = assay: Antibacterial activity against Yersinia pestis Colorado 92 infected in African green monkey B6872 model assessed as bacterial burden in liver at 25 mg/kg, iv administered within 6 hrs post onset of sustained fever as 30 mins infusion for 5 days (reference value: 5.2 10^8CFU/g); format: functional, organism-based; conditions: CO92
# Yersinia pestis [17] = assay: Antibacterial activity against Yersinia pestis Colorado 92 infected in African green monkey B6106 model assessed as bacterial burden in blood at 25 mg/kg, iv administered within 6 hrs post onset of sustained fever as 30 mins infusion for 5 days (reference value: 1.2 10^7CFU/ml); format: functional, CO92
# African green monkey [18] = assay: Toxicity in African green monkey 7337 model infected with Yersinia pestis Colorado 92 assessed as serum gamma glutamyl-transferase level at 25 mg/kg, iv administered within 6 hrs post onset of sustained fever as 30 mins infusion for 10 days (reference value: 67 IU/L); format: organism-based; conditions: chlorocebus sabaeus, in vivo
# Yersinia pestis [19] = assay: as §2, with “tracheobronchial lymph nodes” for “kidney”, “7.7 10^9CFU/g)” for “7.1 10^7CFU/g)”; format: functional, CO92, Lymph node
# African green monkey [20] = assay: Toxicity in African green monkey B5994 model infected with Yersinia pestis Colorado 92 assessed as serum lactate dehydrogenase level at 25 mg/kg, iv administered within 6 hrs post onset of sustained fever as 30 mins infusion for 10 days (reference value: 364 IU/L); format: organism-based; conditions: chlorocebus sabaeus, in vivo
# Yersinia pestis [21] = assay: Antibacterial activity against Yersinia pestis Colorado 92 infected in African green monkey B6415 model assessed as bacterial burden in lung at 25 mg/kg, iv administered within 6 hrs post onset of sustained fever as 30 mins infusion for 5 days (reference value: 7.7 10^8CFU/g); format: functional, CO92
# Yersinia pestis [22] = assay: Antibacterial activity against Yersinia pestis Colorado 92 infected in African green monkey C2149 model assessed as bacterial burden in heart at 6.25 mg/kg, iv administered within 6 hrs post onset of sustained fever as 30 mins infusion for 5 days (reference value: 2.6 10^7CFU/g); format: functional, CO92
# Yersinia pestis [23] = assay: as §3, with “C2149” for “B6988”, “tracheobronchial lymph nodes” for “lung”, “10^9CFU/g)” for “10^8CFU/g)”; format: functional, CO92, Lymph node
# Yersinia pestis [24] = assay: Antibacterial activity against Yersinia pestis Colorado 92 infected in African green monkey B6861 model assessed as bacterial burden in heart at 6.25 mg/kg, iv administered within 6 hrs post onset of sustained fever as 30 mins infusion for 5 days (reference value: 2.6 10^7CFU/g); format: functional, CO92
# African green monkey [25] = assay: Toxicity in African green monkey B6291 model infected with Yersinia pestis Colorado 92 assessed as serum alanine aminotransferase level at 25 mg/kg, iv administered within 6 hrs post onset of sustained fever as 30 mins infusion for 10 days (reference value: 47 IU/L); format: organism-based; conditions: chlorocebus sabaeus, in vivo
# Yersinia pestis [26] = assay: Antibacterial activity against Yersinia pestis Colorado 92 infected in African green monkey B6872 model assessed as bacterial burden in lung at 25 mg/kg, iv administered within 6 hrs post onset of sustained fever as 30 mins infusion for 5 days (reference value: 7.7 10^8CFU/g); format: functional, organism-based; conditions: CO92
smiles,measurement,setting,value
CN[C@@H]1[C@@H](O)[C@@H](O[C@@H]2[C@@H](O)[C@H](O[C@H]3OC(CNCCO)=CC[C@H]3N)[C@@H](N)C[C@H]2NC(=O)[C@@H](O)CCN)OC[C@]1(C)O [PLAZOMICIN],Vd,[1],0.33 L/kg
same,Activity,African green monkey [2],469 IU/L
same,Activity,African green monkey [3],18 mg/dL
same,Activity,Yersinia pestis [4],90 CFU/g
same,Activity,Yersinia pestis [5],Below limit of detection
same,Activity,Yersinia pestis [6],60 CFU/g
same,Activity,Yersinia pestis [7],72 CFU/g
same,Activity,[8],5.7 ×10³ /uL
same,Activity,Yersinia pestis [9],11 CFU/g
same,Activity,Yersinia pestis [10],80 CFU/g
same,Activity,Yersinia pestis [11],19 CFU/g
same,Activity,Yersinia pestis [12],76 CFU/g
same,Activity,African green monkey [13],0.6 mg/dL
same,Activity,Yersinia pestis [14],Below limit of detection
same,Activity,Yersinia pestis [15],3.2 ×10⁸ CFU/g
same,Activity,Yersinia pestis [16],Below limit of detection
same,Activity,Yersinia pestis [17],40 CFU/ml
same,Activity,African green monkey [18],63 IU/L
same,Activity,Yersinia pestis [19],1.6 ×10⁷ CFU/g
same,Activity,African green monkey [20],403 IU/L
same,Activity,Yersinia pestis [21],3.2 ×10⁹ CFU/g
same,Activity,Yersinia pestis [22],9.7 ×10⁶ CFU/g
same,Activity,Yersinia pestis [23],1 ×10⁹ CFU/g
same,Activity,Yersinia pestis [24],16 CFU/g
same,Activity,African green monkey [25],68 IU/L
same,Activity,Yersinia pestis [26],Below limit of detection
